Legend:
Assay in all cases: relative viability (nuclei count vs DMSO), 5 days (fraction); higher = more cells survive
Serdemetan + Olaparib = compound: c1ccc2c(CCNc3ccc(Nc4ccncc4)cc3)c[nH]c2c1 [Serdemetan] + O=C(c1cc(Cc2n[nH]c(=O)c3ccccc23)ccc1F)N1CCN(C(=O)C2CC2)CC1 [Olaparib] (partner 8 µM)
Procedure, shortened: (§1)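 Lung cancer cell lines, seeded in 1536-well plates, were treated the following day by pin tool with a single drug or with five library-drug doses (not always all listed) in √10 steps on top of a fixed anchor-drug dose. Cells were fixed and nuclei stained in one step after 5 days, and nuclei were counted. Relative viability is the nuclei count for treated wells divided by that for vehicle wells, reported as medians of duplicate plates.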

Serdemetan + Crizotinib = compound: c1ccc2c(CCNc3ccc(Nc4ccncc4)cc3)c[nH]c2c1 [Serdemetan] + C[C@@H](Oc1cc(-c2cnn(C3CCNCC3)c2)cnc1N)c1c(Cl)ccc(F)c1Cl [Crizotinib] (partner 1 µM)
Procedure, shortened: as §1

Selisistat + Linsitinib = compound: C1CC(C2=C(C1)C3=C(N2)C=CC(=C3)Cl)C(=O)N [Selisistat] + C[C@]1(O)C[C@@H](c2nc(-c3ccc4ccc(-c5ccccc5)nc4c3)c3c(N)nccn32)C1 [Linsitinib] (partner 1 µM)
Procedure, shortened: as §1

Serdemetan + Pemetrexed = compound: c1ccc2c(CCNc3ccc(Nc4ccncc4)cc3)c[nH]c2c1 [Serdemetan] + Nc1nc2[nH]cc(CCc3ccc(C(=O)N[C@@H](CCC(=O)O)C(=O)O)cc3)c2c(=O)[nH]1 [Pemetrexed] (partner 0.2 µM)
Procedure, shortened: as §1

Cell Line	relative viability (Serdemetan + Olaparib; first compound 0.04 µM)	relative viability (Serdemetan + Olaparib; first compound 0.1265 µM)	relative viability (Serdemetan + Olaparib; first compound 0.4 µM)	relative viability (Serdemetan + Olaparib; first compound 1.265 µM)	relative viability (Serdemetan + Olaparib; first compound 4 µM)	relative viability (Serdemetan + Crizotinib; first compound 0.04 µM)	relative viability (Serdemetan + Crizotinib; first compound 0.1265 µM)	relative viability (Serdemetan + Crizotinib; first compound 0.4 µM)	relative viability (Serdemetan + Crizotinib; first compound 1.265 µM)	relative viability (Serdemetan + Crizotinib; first compound 4 µM)	relative viability (Selisistat + Linsitinib; first compound 0.4 µM)	relative viability (Selisistat + Linsitinib; first compound 1.265 µM)	relative viability (Selisistat + Linsitinib; first compound 12.65 µM)	relative viability (Selisistat + Linsitinib; first compound 40 µM)	relative viability (Serdemetan + Pemetrexed; first compound 0.04 µM)	relative viability (Serdemetan + Pemetrexed; first compound 0.1265 µM)	relative viability (Serdemetan + Pemetrexed; first compound 0.4 µM)	relative viability (Serdemetan + Pemetrexed; first compound 1.265 µM)	relative viability (Serdemetan + Pemetrexed; first compound 4 µM)	relative viability (Selisistat + Linsitinib; first compound 4 µM)
NCI-H647	0.51	0.495	0.534	0.27	0.165	0.978	1.16	0.983	0.583	0.637	1.15	1.12	1.07	1.26	0.164	0.172	0.175	0.179	0.137	–
NCI-H1792	0.405	0.336	0.231	0.0956	0.116	0.947	0.926	0.867	0.939	0.603	0.548	0.594	0.438	0.635	0.74	0.88	0.761	0.38	0.404	–
SK-LU-1	0.463	0.369	0.479	0.308	0.365	0.813	0.899	0.82	0.679	0.712	1.18	1.28	1.1	1.04	0.941	0.895	1.07	0.908	0.722	1.35
NCI-H2009	0.777	0.687	0.688	0.496	0.497	1	0.966	0.912	0.803	0.956	1.19	1.17	1.1	1.18	1.03	0.89	1.1	0.895	0.892	1.19
LOU-NH91	0.897	0.889	–	–	0.877	0.733	0.738	–	0.719	0.699	0.999	0.95	1.08	0.937	0.394	0.383	–	–	0.419	0.848
NCI-H2405	0.809	0.829	0.86	0.795	0.779	0.81	0.781	0.818	0.763	0.608	0.975	–	0.948	0.885	1.04	1.02	1.1	0.609	0.983	–
LCLC-97TM1	0.349	0.358	0.403	0.174	0.237	0.361	0.314	0.351	0.233	0.189	0.166	0.156	0.167	0.245	0.147	0.196	0.188	0.153	0.197	0.193
NCI-H596	0.694	0.657	0.517	0.532	0.475	1	0.862	0.914	0.569	0.51	1	1.11	1.23	0.999	0.45	0.486	0.515	0.463	0.492	1.03
H3255	0.559	0.529	0.527	0.508	0.566	0.723	0.836	0.811	0.746	0.853	0.946	0.843	0.827	0.938	0.594	0.462	0.541	0.539	0.572	0.973
SK-MES-1	0.688	0.687	0.635	0.522	0.43	0.983	0.976	0.898	0.647	0.56	1.11	1.04	1.05	1.01	0.938	0.89	0.824	0.772	0.841	0.955
NCI-H1437	0.661	0.612	0.62	0.677	0.537	0.835	1.03	0.786	0.778	0.8	1.11	0.981	0.986	0.89	0.287	0.327	0.316	0.264	0.252	1.09
LU99A	0.245	0.185	0.17	0.124	0.136	0.521	0.529	0.317	0.187	0.17	0.537	0.608	0.516	0.485	0.177	0.182	0.345	0.15	0.16	0.657
HCC-827	0.631	0.594	–	0.509	0.306	0.948	0.867	–	0.791	0.615	0.873	0.873	0.948	1.01	0.218	0.191	–	0.2	0.227	0.941
LK-2	0.715	0.645	0.782	0.444	0.57	0.217	0.265	0.205	0.204	0.252	0.265	0.437	0.519	0.619	0.261	0.206	0.225	0.265	0.241	0.341
HCC-366	0.22	0.0954	0.0557	0.0411	0.0631	0.528	0.412	0.117	0.0254	0.0545	0.808	0.582	0.577	0.618	0.177	0.135	0.15	0.0885	0.055	0.336
BEN	0.975	0.98	1.15	0.81	0.594	0.826	0.864	0.944	0.759	0.64	0.971	0.986	0.762	0.827	0.717	0.614	0.849	0.955	0.634	0.812
NCI-H23	0.314	0.364	0.298	–	0.231	0.519	0.421	0.549	0.513	0.321	0.631	0.466	0.579	0.6	0.649	0.789	0.722	–	0.763	–

Reference: the supplement of paper PMC10307832
